Experiments:
Experiment in all cases: relative IC50 (inflection point of fitted viability curve, relative to fitted max inhibition); higher = less sensitive
Conditions in all cases: 72 h
[1] = system: normal primary NK cells, pool 1 (3 donors) (IL-2 2.5 ng/mL)
Method: (§1)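 Drug sensitivity and resistance testing: 5 concentrations over a 10,000-fold range, 72 h at 37 °C, viability by CellTiter-Glo normalised to DMSO and benzethonium chloride controls. IC50 is the inflection point of a logistic fit (min fixed at 0, max fitted), so it is relative to the fitted maximal inhibition. Kept only where fitted max inhibition is at least 50%.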

[2] = system: normal primary NK cells, pool 2 (3 donors) (IL-2 2.5 ng/mL)
Method: as §1

[3] = system: KHYG-1 (IL-2 2.5 ng/mL)
Method: as §1

[4] = system: DERL-7 (IL-2 2.5 ng/mL)
Method: as §1

[5] = system: normal primary NK cells, pool 3 (3 donors) (IL-2 2.5 ng/mL)
Method: as §1

[6] = system: NKL (IL-2 2.5 ng/mL)
Method: as §1

[7] = system: normal primary NK cells, pool 1 (3 donors), resting (IL-2 0 ng/mL)
Method: as §1

[8] = system: NK-92 (IL-2 2.5 ng/mL)
Method: as §1

[9] = system: YT (IL-2 2.5 ng/mL)
Method: as §1

[10] = system: IMC-1 (IL-2 20 ng/mL)
Method: as §1

[11] = system: NK-YS (IL-2 2.5 ng/mL)
Method: as §1

[12] = system: SNK-6 (IL-2 2.5 ng/mL)
Method: as §1

[13] = system: KAI3 (IL-2 2.5 ng/mL)
Method: as §1

| SMILES | relative IC50 [1] | relative IC50 [2] | relative IC50 [3] | relative IC50 [4] | relative IC50 [5] | relative IC50 [6] | relative IC50 [7] | relative IC50 [8] | relative IC50 [9] | relative IC50 [10] | relative IC50 [11] | relative IC50 [12] | relative IC50 [13] |
| --- | --- | --- | --- | --- | --- | --- | --- | --- | --- | --- | --- | --- | --- |
| O=C(CCCCCCC(=O)Nc1ccccc1)NO [Vorinostat] | 376 nM | 1100 nM | 531 nM | 690 nM | 1980 nM | 384 nM | 394 nM | 467 nM | 1470 nM | 2290 nM | 1170 nM | 713 nM | – |
| C[C@@H]1C[C@H]2[C@@H]3CCC4=CC(=O)C=C[C@]4(C)[C@@]3(F)[C@@H](O)C[C@]2(C)[C@@]1(O)C(=O)CO [Dexamethasone] | 14.1 nM | 11.8 nM | 89.3 nM | 8.07 nM | 28.8 nM | 7.41 nM | 4.64 nM | – | – | > 10000 nM | – | – | – |
| CO[C@H](C(=O)[C@@H](O)[C@@H](C)O)[C@@H]1Cc2cc3cc(O[C@H]4C[C@@H](O[C@@H]5C[C@@H](O)[C@H](O)[C@@H](C)O5)[C@H](O)[C@@H](C)O4)c(C)c(O)c3c(O)c2C(=O)[C@H]1O[C@H]1C[C@@H](O[C@@H]2C[C@@H](O)[C@@H](O[C@@H]3C[C@](C)(O)[C@H](O)[C@@H](C)O3)[C@@H](C)O2)[C@H](O)[C@@H](C)O1 [Plicamycin] | 136 nM | 692 nM | 44.7 nM | 48.2 nM | 785 nM | 37.9 nM | 135 nM | 220 nM | 31.6 nM | 730 nM | 27.7 nM | 11.7 nM | 84.1 nM |
| COC[C@H](NC(=O)c1cnc(C)s1)C(=O)N[C@@H](COC)C(=O)N[C@@H](Cc1ccccc1)C(=O)[C@@]1(C)CO1 [Oprozomib] | 34.7 nM | 17.9 nM | 48 nM | 10.5 nM | 24.8 nM | 52.5 nM | 19.2 nM | 32.4 nM | 49.1 nM | 76.8 nM | 27.7 nM | 50.1 nM | 24.1 nM |
| Cc1c(N)nc([C@H](CC(N)=O)NC[C@H](N)C(N)=O)nc1C(=O)N[C@H](C(=O)N[C@H](C)[C@@H](O)[C@H](C)C(=O)N[C@H](C(=O)NCCc1nc(-c2nc(C(=O)NCCC[S+](C)C)cs2)cs1)[C@@H](C)O)[C@@H](OC1OC(CO)C(O)C(O)C1OC1OC(CO)C(O)C(OC(N)=O)C1O)c1cnc[nH]1 (stereo partly drawn) [Bleomycin] | 2140 nM | 1510 nM | 2270 nM | 1220 nM | 1150 nM | 1150 nM | 3560 nM | 662 nM | 1530 nM | 1480 nM | 635 nM | 41.8 nM | 537 nM |
| CCN(CC)CCOc1ccc(C(=C(Cl)c2ccccc2)c2ccccc2)cc1 [Clomifene] | 2560 nM | 1810 nM | 2490 nM | 1580 nM | 1540 nM | 2280 nM | 2170 nM | 1710 nM | 3030 nM | 2410 nM | 2280 nM | 1730 nM | 1840 nM |
| c1ccc(Cn2c(-c3ccc(OC[C@H](C4CCNCC4)n4c(-c5ccccc5)nc5ccccc54)cc3)nc3ccccc32)cc1 [deltarasin] | 2880 nM | 2270 nM | 2850 nM | 1950 nM | 2910 nM | 2110 nM | 1640 nM | 1830 nM | 2630 nM | 3560 nM | 2410 nM | 3290 nM | 1770 nM |
| Nc1nc(Nc2ccc3c(c2)CC[C@@H](N2CCCC2)CC3)nn1-c1cc2c(nn1)-c1ccccc1CCC2 [BGB324] | 766 nM | 1070 nM | 836 nM | 508 nM | 1620 nM | 533 nM | 437 nM | 1020 nM | 2250 nM | 3400 nM | 2020 nM | 1290 nM | 1110 nM |
| Nc1ccccc1NC(=O)c1ccc(CNc2nccc(-c3cccnc3)n2)cc1 [Mocetinostat] | 723 nM | 703 nM | 340 nM | 381 nM | 738 nM | 166 nM | 443 nM | 246 nM | 1030 nM | 291 nM | 697 nM | 242 nM | 313 nM |
| Nc1nc(Cl)nc2c1ncn2[C@@H]1O[C@H](CO)[C@@H](O)[C@@H]1F [Clofarabine] | 14.4 nM | 22.3 nM | 35 nM | 21.7 nM | 28 nM | 35.6 nM | 7.76 nM | 31.2 nM | 225 nM | 54.1 nM | 67 nM | 42.8 nM | 49.6 nM |
| Cc1ccc(C(=O)Nc2ccc(CN3CCN(C)CC3)c(C(F)(F)F)c2)cc1C#Cc1cnc2cccnn12 [Ponatinib] | 240 nM | 335 nM | 270 nM | 156 nM | 415 nM | 96.1 nM | 55.3 nM | 425 nM | 121 nM | > 1000 nM | – | – | 213 nM |
| CCc1cnn2c(NCc3ccc[n+]([O-])c3)cc(N3CCCC[C@H]3CCO)nc12 [Dinaciclib] | 10.9 nM | 3.72 nM | 11.3 nM | 13.7 nM | 6.24 nM | 4.24 nM | 16.4 nM | 7.4 nM | 3.6 nM | 11 nM | 4.68 nM | 4.4 nM | 8.92 nM |
| O=C(O)CCCc1ccc(N(CCCl)CCCl)cc1 [Chlorambucil] | 2830 nM | 2960 nM | 3160 nM | – | 3180 nM | 1410 nM | 1660 nM | 3200 nM | – | – | 1930 nM | 2210 nM | 1620 nM |

Source: the supplement of paper PMC5908809
